Each structure is given as a SMILES string. Structures can show the parent of a compound that is named as a salt.

Data set [1] concerns the target T1, M3 muscarinic receptor (Rattus norvegicus, UniProt P08483). The data set can be described thus: biochemical. To be noted: Receptor Binding Assay M3 pKi.
Data set [2] addresses T1, M3 muscarinic receptor.
Data set [3] deals with T2, M2 muscarinic receptor (Rattus norvegicus, UniProt P10980).
T2 construct: Submandibular glands and heart were isolated and placed in ice cold homogenising buffer; from tissue; host or cells: rat heart membrane homogenate
T2 sequence (P10980 1-466): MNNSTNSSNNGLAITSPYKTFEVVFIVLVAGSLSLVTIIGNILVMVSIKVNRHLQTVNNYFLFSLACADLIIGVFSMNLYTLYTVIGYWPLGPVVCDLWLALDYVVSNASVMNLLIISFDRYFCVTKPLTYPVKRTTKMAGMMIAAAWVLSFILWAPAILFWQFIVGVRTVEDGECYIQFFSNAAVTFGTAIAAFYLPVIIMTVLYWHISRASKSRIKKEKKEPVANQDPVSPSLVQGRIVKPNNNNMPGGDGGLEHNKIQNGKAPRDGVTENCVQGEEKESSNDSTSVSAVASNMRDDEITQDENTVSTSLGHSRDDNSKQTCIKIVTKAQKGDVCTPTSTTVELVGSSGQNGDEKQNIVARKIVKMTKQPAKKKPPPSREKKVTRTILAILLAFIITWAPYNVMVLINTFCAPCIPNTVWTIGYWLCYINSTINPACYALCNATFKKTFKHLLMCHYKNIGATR
The data set can be described thus: biochemical. The data set is classed as binding. To be noted: Receptor Binding Assay M2 pKi.

In data set [4] the test system is bladder pressure. In words: In vivo anaesthetized rabbit, carbachol-induced bladder pressure. To be noted: bladder selectivity expressed as fold of selectivity of oxybutynin in the same model.

T1 sequence (P08483 whole entry): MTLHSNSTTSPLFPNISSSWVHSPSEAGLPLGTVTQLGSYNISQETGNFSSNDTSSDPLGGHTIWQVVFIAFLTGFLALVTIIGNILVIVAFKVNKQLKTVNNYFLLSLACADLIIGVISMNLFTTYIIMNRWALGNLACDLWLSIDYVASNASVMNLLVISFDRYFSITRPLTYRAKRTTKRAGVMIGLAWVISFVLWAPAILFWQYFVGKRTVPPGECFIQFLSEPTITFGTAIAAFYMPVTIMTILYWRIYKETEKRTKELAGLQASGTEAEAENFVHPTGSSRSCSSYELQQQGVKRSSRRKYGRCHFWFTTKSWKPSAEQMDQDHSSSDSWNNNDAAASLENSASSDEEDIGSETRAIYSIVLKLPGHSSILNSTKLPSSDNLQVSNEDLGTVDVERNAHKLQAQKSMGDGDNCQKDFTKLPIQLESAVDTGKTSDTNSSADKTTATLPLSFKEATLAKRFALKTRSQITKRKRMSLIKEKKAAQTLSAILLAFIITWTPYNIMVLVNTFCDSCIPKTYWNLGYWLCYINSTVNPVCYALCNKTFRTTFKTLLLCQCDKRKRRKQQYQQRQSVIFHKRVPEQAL

Turning to `O=C(NC[C@@H]1[C@H]2CN(Cc3ccccc3)C[C@@H]12)C(O)(c1ccccc1)c1ccccc1` [Compound No. 1, (1α,5α,6α)-N-[3-benzyl-3-azabicyclo[3.1.0]hexyl-6-(aminomethyl)-yl]-2-hydroxy-2,2-diphenyl acetamide], the inhibitory constant (Ki) (usually a dissociation constant, usually derived from enzyme kinetics or from competition with a known ligand) in data set [1] is 25.1 nM; in data set [3] it was 257 nM. Also, in data set [2], the “Receptor Binding Assay Selectivity M2/M3” value was determined as 10.
The matching figures for `CC(C)=CCCN1CC2C(CNC(=O)C(O)(c3ccccc3)C3CCCC3)C2C1` (stereo not drawn) [Compound No. 16, (1α,5α,6α)-N-[3-(4-methyl-3-pentenyl)-3-azabicyclo[3.1.0]hexyl-6-(aminomethyl)-yl]-2-hydroxy-2-cyclopentyl-2-phenyl acetamide]: 23.4 nM, 178 nM and 7.6.
Turning to `O=C(NCC1C2CN(Cc3ccccc3)CC12)[C@](O)(c1ccccc1)C1CCCC1.O=C(O)C(O)C(O)C(=O)O` (stereo partly drawn) [Compound No. 35, (2R)-(+)-(1α,5α,6α)-N-[3-benzyl-3-azabicyclo[3.1.0]hexyl-6-(aminomethyl)-yl]-2-hydroxy-2-cyclopentyl-2-phenylacetamide. L(+)-tartrate salt], the “Fold of Oxybutynin” value in data set [4] stood at 3.45.
The same measure, in the same setting: in the case of `O=C(NCC1C2CN(Cc3ccccc3)CC12)[C@@](O)(c1ccccc1)C1CCCC1.O=C(O)C(O)C(O)C(=O)O` (stereo partly drawn) [Compound No. 36, (2S)-(−)-(1α,5α,6α)-N-[3-benzyl-3-azabicyclo[3.1.0]hexyl-6(aminomethyl)-yl]-2-hydroxy-2-cyclopentyl-2-phenylacetamide. L(+)-tartrate salt] it was 2.17.
Take `O=C(NCC1C2CN(Cc3ccccc3)CC12)C(O)(c1ccccc1)C1CCCCC1` (single isomer, unassigned) [Compound No. 28]: the Ki in data set [1] was 3.98 nM; in data set [3], 14.1 nM. In addition, the “Receptor Binding Assay Selectivity M2/M3” value in data set [2] is given as 3.5.
The matching figures for `CC(C)=CCN1C[C@@H]2[C@@H](CNC(=O)C(O)(c3ccccc3)C3CCCCC3)[C@@H]2C1` (stereo partly drawn) [Compound No. 39, (1α,5α,6α)-N-[3-(3-methyl-2-butenyl)-3-azabicyclo[3.1.0]hexyl-6-(aminomethyl)yl]-2-hydroxy-2-cyclohexyl-2-phenylacetamide]: 4.37 nM, 16.2 nM and 3.7.
With `CC(NC(=O)C(O)(c1ccccc1)C1CCCCC1)[C@H]1[C@@H]2CN(Cc3ccccc3)C[C@@H]21` (stereo partly drawn) [Compound No. 24, (1α,5α,6α)-N-[3-benzyl-3-azabicyclo[3.1.0]hexyl-6-(1-aminoethyl)-yl]-2-hydroxy-2-cyclohexyl-2-phenyl acetamide], the Ki is 30.9 nM in data set [1] and 275 nM in data set [3]. In data set [2], the “Receptor Binding Assay Selectivity M2/M3” value worked out at 8.9.
The matching figures for `CC(NC(=O)C(O)(c1ccccc1)c1ccccc1)[C@H]1[C@@H]2CN(Cc3ccccc3)C[C@@H]21` (stereo partly drawn) [Compound No. 23, (1α,5α,6α)-N-[3-benzyl-3-azabicyclo[3.1.0]hexyl-6-(1-aminoethyl)-yl]-2-hydroxy-2,2-diphenyl acetamide]: 158 nM, 589 nM and 3.7.
On to `CC(NC(=O)C(O)(c1ccccc1)C1CCCC1)[C@H]1[C@@H]2CN(Cc3ccccc3)C[C@@H]21` (stereo partly drawn) [Compound No. 25, (1α,5α,6α)-N-[3-benzyl-3-azabicyclo[3.1.0]hexyl-6-(1-aminoethyl)-yl]-2-hydroxy-2-cyclopentyl-2-phenyl acetamide], for which the figures for the Ki in data set [1] and in data set [3] were 25.1 nM and 427 nM, respectively. The “Receptor Binding Assay Selectivity M2/M3” value in data set [2] was determined as 17.
The matching figures for `CC(C)=CCCN1C[C@@H]2[C@@H](CNC(=O)C(O)(c3ccccc3)C3CCCCC3)[C@@H]2C1` (stereo partly drawn) [Compound No. 15, (1α,5α,6α)-N-[3-(4-methyl-3-pentenyl)-3-azabicyclo[3.1.0]hexyl-6-(aminomethyl)-yl]-2-hydroxy-2-cyclohexyl-2-phenyl acetamide]: 13.5 nM, 257 nM and 19.
The matching figures for `O=C(NC[C@@H]1[C@H]2CN(CCc3ccc4c(c3)CCO4)C[C@@H]12)C(O)(c1ccccc1)C1CCCCC1` (stereo partly drawn) [Compound No. 9, (1α,5α,6α)-N-[3-(2-(2,3-dihydrobenzofuran-5-yl)ethyl)-3-azabicyclo[3.1.0]hexyl-6-(aminomethyl)-yl]-2-hydroxy-2-cyclohexyl-2-phenyl acetamide]: 38.9 nM, 257 nM and 6.6.
The matching figures for `O=C(NCC1C2CN(Cc3ccccc3)CC12)C(O)(c1ccccc1)C1CCCCC1` (stereo not drawn) [Compound No. 2, (1α,5α,6α)-N-[3-benzyl-3-azabicyclo[3.1.0]hexyl-6-(aminomethyl)-yl]-2-hydroxy-2-cyclohexyl-2-phenyl acetamide]: 5.62 nM, 141 nM and 25.
In the case of `O=C(NC[C@@H]1[C@H]2CN(Cc3ccccc3)C[C@@H]12)C(O)(c1ccccc1)C1CC1` (stereo partly drawn) [Compound No. 38, (1α,5α,6α)-N-[3-benzyl-3-azabicyclo[3.1.0]hexyl-6-(aminomethyl)-yl]-2-hydroxy-2-cyclopropyl-2-phenylacetamide], the Ki was 64.6 nM in data set [1] and 427 nM in data set [3]. Besides, the “Receptor Binding Assay Selectivity M2/M3” value in data set [2] is 6.6.
The matching figures for `CC(c1ccccc1)N1CC2C(CNC(=O)C(O)(c3ccccc3)C3CCCC3)C2C1` (stereo not drawn) [Compound No. 22, (1α,5α,6α)-N-[3-(1-phenylethyl)-3-azabicyclo[3.1.0]hexyl-6-(aminomethyl)-yl]-2-hydroxy-2-cyclopentyl-2-phenyl acetamide]: 5.89 nM, 87.1 nM and 14.8.
For `CC(c1ccccc1)N1CC2C(CNC(=O)C(O)(c3ccccc3)C3CCCCC3)C2C1` (stereo not drawn) [Compound No. 21, (1α,5α,6α)-N-[3-(1-phenylethyl)-3-azabicyclo[3.1.0]hexyl-6-(aminomethyl)-yl]-2-hydroxy-2-cyclohexyl-2-phenyl acetamide], the values for the Ki in data set [1] and in data set [3] were 15.1 nM and 257 nM, respectively. In addition, the “Receptor Binding Assay Selectivity M2/M3” value in data set [2] is on record as 17.
In the case of `O=C(NC[C@@H]1[C@H]2CN(Cc3ccccc3)C[C@@H]12)[C@@](O)(c1ccccc1)C1CCCC1` [Compound No. 32, (2S)-(−)(1α,5α,6α)-N-[3-benzyl-3-azabicyclo[3.1.0]hexyl-6-(aminomethyl)-yl]-2-hydroxy-2-cyclopentyl-2-phenyl acetamide], the Ki was 22.4 nM in data set [1] and 631 nM in data set [3]. In data set [2], the “Receptor Binding Assay Selectivity M2/M3” value was determined as 28.
Regarding `O=C(NCC1C2CN(CCc3ccc4c(c3)CCO4)CC12)C(O)(c1ccccc1)C1CCCC1` (stereo not drawn) [Compound No. 10, (1α,5α,6α)-N-[3-(2-(2,3-dihydrobenzofuran-5-yl)ethyl)-3-azabicyclo[3.1.0]hexyl-6-(aminomethyl)-yl]-2-hydroxy-2-cyclopentyl-2-phenyl acetamide], the figures for the Ki in data set [1] and in data set [3] were 32.4 nM and 339 nM, respectively. In data set [2], the “Receptor Binding Assay Selectivity M2/M3” value is recorded as 10.47.
For `O=C(NC[C@@H]1[C@H]2CN(Cc3ccccc3)C[C@@H]12)C(O)(c1ccccc1)C1CCCC1` (stereo partly drawn) [Compound No. 3, (1α,5α,6α)-N-[3-benzyl-3-azabicyclo[3.1.0]hexyl-6(aminomethyl)-yl]-2-hydroxy-2-cyclopentyl-2-phenyl acetamide], the melting point – broadly, the temperature of the solid-liquid transition – lay in the range of 131 to 134 °C. In data set [1], this molecule showed an inhibition constant (Ki) of 5.89 nM. Besides, the “Receptor Binding Assay Selectivity M2/M3” value in data set [2] was 16. For the same molecule, the inhibitory constant (Ki) in data set [3] is 95.5 nM.
As for `O=C(NC[C@@H]1[C@H]2CN(Cc3ccccc3)C[C@@H]12)[C@](O)(c1ccccc1)C1CCCC1` [Compound No. 29, (2R)-(+)-(1α,5α,6α)-N-[3-benzyl-3-azabicyclo[3.1.0]hexyl-6-(aminomethyl)-yl]-2-hydroxy-2-cyclopentyl-2-phenyl acetamide], the Ki in data set [1] was 1.1 nM; in data set [3] it was 12.3 nM. The “Receptor Binding Assay Selectivity M2/M3” value in data set [2] amounted to 11.2.
In the same order, the values of `O=C(NCC1C2CN(Cc3ccccc3)CC12)C(O)(c1ccccc1)C1CCCC1` [Compound No. 34, (1α,5α,6α)-N-[3-benzyl-3-azabicyclo[3.1.0]hexyl-6-(aminomethyl)-yl]-2-hydroxy-2-cyclopentyl-2-phenyl acetamide L-(+)-tartrate salt] are 5.89 nM, 60.3 nM and 8.
The matching figures for `O=C(NC[C@@H]1[C@H]2CN(Cc3ccccc3)C[C@@H]12)C(O)(c1ccccc1)C1CCC1` (stereo partly drawn) [Compound No. 37, (1α,5α,6α)-N-[3-benzyl-3-azabicyclo[3.1.0]hexyl-6-(aminomethyl)-yl]-2hydroxy-2-cyclobutyl-2-phenylacetamide]: 5.89 nM, 57.5 nM and 8.

Values taken from patent publication US20070004791A1, “3,6-disubstituted azabicyclo {3.1.0} hexane derivatives useful as muscarnic receptor antagonists” (priority 2002, published 2007).
